Measurements published in ChEMBL document CHEMBL1201862, “PubChem BioAssay data set” (2004).
The source made the active and inactive calls.

Tests used:
[1] = target: Acyl-protein thioesterase 2 (Homo sapiens, UniProt O95372); test: Late stage assay provider results from the probe development effort to identify selective inhibitors of LYPLA2: fluorescence-based biochemical dose-response assay.
Vero = test: viability of Vero cells under compound – cytotoxicity control for flavivirus capping enzyme inhibitors (AID 588742); type: functional; settings: Chlorocebus sabaeus
[2] = target: T1, Histone-lysine N-methyltransferase NSD2 (Homo sapiens, UniProt O96028); type: biochemical
T1 sequence (O96028 whole entry): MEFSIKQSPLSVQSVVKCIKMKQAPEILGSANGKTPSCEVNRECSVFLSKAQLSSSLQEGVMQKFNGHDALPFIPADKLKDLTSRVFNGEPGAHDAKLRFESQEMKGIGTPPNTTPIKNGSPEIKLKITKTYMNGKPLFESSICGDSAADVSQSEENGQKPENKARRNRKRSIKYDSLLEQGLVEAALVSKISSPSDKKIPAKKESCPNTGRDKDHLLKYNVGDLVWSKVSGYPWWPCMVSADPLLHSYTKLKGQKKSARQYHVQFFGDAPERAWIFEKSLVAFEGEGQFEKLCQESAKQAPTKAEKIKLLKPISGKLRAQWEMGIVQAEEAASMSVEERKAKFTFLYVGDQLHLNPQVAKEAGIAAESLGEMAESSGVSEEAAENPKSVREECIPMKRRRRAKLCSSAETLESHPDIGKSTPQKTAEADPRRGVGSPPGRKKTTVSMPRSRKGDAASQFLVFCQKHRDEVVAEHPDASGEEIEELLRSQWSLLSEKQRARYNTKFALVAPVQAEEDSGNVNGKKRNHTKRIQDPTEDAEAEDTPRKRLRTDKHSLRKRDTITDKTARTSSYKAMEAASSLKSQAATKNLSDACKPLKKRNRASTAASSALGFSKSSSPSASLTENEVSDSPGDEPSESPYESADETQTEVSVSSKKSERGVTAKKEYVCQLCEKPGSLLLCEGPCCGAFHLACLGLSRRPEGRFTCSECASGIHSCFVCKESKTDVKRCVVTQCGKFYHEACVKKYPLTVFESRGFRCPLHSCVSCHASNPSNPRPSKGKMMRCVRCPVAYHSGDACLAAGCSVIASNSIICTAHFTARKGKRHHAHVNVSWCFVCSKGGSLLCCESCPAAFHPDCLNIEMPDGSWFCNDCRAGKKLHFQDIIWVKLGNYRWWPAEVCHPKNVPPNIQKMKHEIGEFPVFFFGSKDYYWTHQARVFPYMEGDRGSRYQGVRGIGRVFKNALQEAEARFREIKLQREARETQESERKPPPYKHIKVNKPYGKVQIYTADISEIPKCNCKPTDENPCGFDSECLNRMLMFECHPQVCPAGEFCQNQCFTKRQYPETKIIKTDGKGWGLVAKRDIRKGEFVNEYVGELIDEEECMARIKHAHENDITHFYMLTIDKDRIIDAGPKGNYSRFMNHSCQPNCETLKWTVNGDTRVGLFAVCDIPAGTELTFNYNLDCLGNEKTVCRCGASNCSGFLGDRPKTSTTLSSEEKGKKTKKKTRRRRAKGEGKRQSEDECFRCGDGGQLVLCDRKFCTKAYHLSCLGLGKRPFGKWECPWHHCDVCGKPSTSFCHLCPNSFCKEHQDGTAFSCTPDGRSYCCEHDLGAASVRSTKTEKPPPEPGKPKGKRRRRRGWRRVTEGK

[3] = target: Tyrosyl-DNA phosphodiesterase 2 (Homo sapiens, UniProt O95551); test: potency against TDP2 phosphodiesterase activity – biochemical, epi absorbance, IC50, dose response (AID 743297)
[4] = human cervical cancer cell viability loss – 24 h, plate reader, dry powder, cytotoxicity control, dose response (AID 686928); type: functional, cell-based; settings: HeLa
[5] = target: T2, Probable nicotinate-nucleotide adenylyltransferase (Staphylococcus aureus (strain N315), UniProt P65502); type: functional, Staphylococcus aureus subsp. aureus N315;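 on IC50 Mean: confirmatory dose-response retesting of NadD inhibitor hits first found in an ultra-high-throughput screen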
[6] = target: T2, Probable nicotinate-nucleotide adenylyltransferase; type: functional, Staphylococcus aureus subsp. aureus N315; settings: read-out: IC50_Mean
[7] = reduction of Shn3 3'UTR-driven luciferase in osteoblasts – cell-based, Clone20 osteoblasts, firefly luciferase, cherry-picked, dose response (AID 624132); type: functional;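 further: firefly luciferase luminescence from reporter carrying the Shn3 3'UTR in osteoblasts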
[8] = loss of viability in HepG2 cells – cell-based, CellTiter-Glo, cherry-picked, cytotoxicity control for Shn3 inhibitor project, dose response (AID 624134); type: functional
[9] = non-specific 3'UTR reporter inhibition in Clone20-Shn3RL – cell-based, Renilla luciferase, cherry-picked, counter-screen for Shn3 inhibitor project, dose response (AID 624133); type: functional
Protein Wnt-3a = Protein Wnt-3a (Mus musculus, UniProt P27467); test: antagonism of Wnt3a pathway luciferase reporter – Wnt-LIGHT cells, luminescence, selectivity assay for Gli-SUFU antagonist project, dose response (AID 651570); type: functional; settings: read-out: IC50_Mean;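 further: Wnt-LIGHT reporter cells stimulated with conditioned medium from Wnt3a-producing cells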
[10] = target: Matrix metalloproteinase-14 (Homo sapiens, UniProt P50281); test: Dose Response confirmation of uHTS hits for a small molecule inhibitors of MT1-MMP activation in a fluorescence assay set 1.; type: functional
[11] = A Cell-Based Confirmatory Screen for Compounds that Inhibit VEEV, TC-83 (8).; type: functional

T2 sequence (P65502 whole entry): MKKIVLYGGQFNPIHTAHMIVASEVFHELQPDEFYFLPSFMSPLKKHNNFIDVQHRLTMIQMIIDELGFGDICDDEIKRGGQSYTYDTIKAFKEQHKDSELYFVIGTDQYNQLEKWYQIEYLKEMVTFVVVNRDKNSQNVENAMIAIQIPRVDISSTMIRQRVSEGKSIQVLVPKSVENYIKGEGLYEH
Chain of Acyl-protein thioesterase 2 (O95372 whole entry): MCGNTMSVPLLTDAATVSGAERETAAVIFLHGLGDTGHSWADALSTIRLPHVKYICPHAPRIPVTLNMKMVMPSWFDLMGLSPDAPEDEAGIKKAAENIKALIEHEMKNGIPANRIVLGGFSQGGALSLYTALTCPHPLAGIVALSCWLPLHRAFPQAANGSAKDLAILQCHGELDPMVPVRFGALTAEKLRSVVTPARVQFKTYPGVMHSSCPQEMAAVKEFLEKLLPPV
Chain of Tyrosyl-DNA phosphodiesterase 2 (O95551 whole entry): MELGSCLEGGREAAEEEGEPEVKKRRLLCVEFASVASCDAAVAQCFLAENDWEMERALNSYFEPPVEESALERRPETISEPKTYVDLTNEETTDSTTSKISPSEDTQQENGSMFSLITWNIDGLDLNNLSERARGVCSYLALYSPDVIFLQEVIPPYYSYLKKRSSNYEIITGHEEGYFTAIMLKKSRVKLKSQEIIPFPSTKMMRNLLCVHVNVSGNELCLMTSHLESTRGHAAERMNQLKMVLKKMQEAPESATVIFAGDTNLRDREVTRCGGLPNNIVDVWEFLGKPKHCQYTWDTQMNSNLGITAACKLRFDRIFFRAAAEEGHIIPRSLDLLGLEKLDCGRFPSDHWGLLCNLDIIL
Chain of Protein Wnt-3a (P27467 whole entry): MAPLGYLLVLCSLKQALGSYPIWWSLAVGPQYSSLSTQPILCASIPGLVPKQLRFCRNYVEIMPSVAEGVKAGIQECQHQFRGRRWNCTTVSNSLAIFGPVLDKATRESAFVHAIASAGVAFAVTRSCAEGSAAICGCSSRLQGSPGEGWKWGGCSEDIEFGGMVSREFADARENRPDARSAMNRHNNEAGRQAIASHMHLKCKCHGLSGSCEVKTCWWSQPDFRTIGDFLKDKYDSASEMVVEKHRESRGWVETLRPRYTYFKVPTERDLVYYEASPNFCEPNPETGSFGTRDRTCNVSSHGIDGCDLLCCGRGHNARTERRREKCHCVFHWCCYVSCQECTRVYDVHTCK

With O=C(CN1CCN(C(=O)c2ccco2)CC1)Nc1cc(C(F)(F)F)ccc1Cl the IC50 [1] was > 10 µM (inactive).
In the case of O=C1C=C(Nc2cccnc2)c2ccccc2C1=O, the CC50 (Vero) is reported as 12.1 µM (active), the AC50 [2] is reported as 3.7 µM (active) and the IC50 [3] is reported as 4.03 µM (active).
In the case of COc1ccc(-n2cnc(=O)c3ccccc32)cc1Cl, the AC50 [4] is reported as > 160 µM (inactive).
With Cc1ccc(S(=O)(=O)Nc2ccc(Nc3nccn4c(-c5ccc6ccccc6c5)cnc34)cc2)cc1 the IC50 [5] was 9.78 µM (active) and the IC50 [6] was 16.3 µM (active).
For CNc1ccccc1C(C)(C)c1cc(-c2cccc(Br)c2)no1, the AC50 [7] was 2 µM (active), the AC50 [8] was 44.5 µM (active) and the AC50 [9] was 9.45 µM (active). The IC50 (Protein Wnt-3a) was 1.8 µM (active) and the IC50 [10] was > 80 µM (inactive).
For CNCCCN(C)Cc1nc2ccc([N+](=O)[O-])cc2c(=O)n1-c1ccccc1, the IC50 [11] was < 0.5 µM (active).
